Test results as given in patent US11999695B2, “YAP1 inhibitors that target the interaction of YAP1 with OCT4” (H. LEE MOFFITT CANCER CENTER AND RESEARCH INSTITUTE, INC., priority 2016, dated 2024).

Legend:
YAP1:OCT4 = YAP1:OCT4 (Homo sapiens, UniProt P46937); test: In vitro YAP1:OCT4 ELISA binding assay; settings: YAP1:OCT4 disruption
Method: Activities of Compounds in the In Vitro YAP1:OCT4 ELISA Binding Assay
Selected compounds were assayed in a YAP1:OCT4 binding assay.

binding of Oct4 to YAP1 = target: T1, binding of Oct4 to YAP1 (Homo sapiens, UniProt P46937); test: Immunoprecipitation-Western blot of Oct4-YAP1 binding (FIG. 15); format: cell-based; settings: 5 μM, 72 hours
T1 construct: Lysates were prepared from the cells, and immunoprecipitated with an antibody to OCt4; endogenous in cells; host or cells: A549 and H1650 cells
Method: FIG. 15 is a group of gel images showing peptidomimetic compounds SR2-022, SR2-030, and SR2-033 reduced YAP1-Oct4 interaction as detected by IP-WB. An immunoprecipitation-Western blot experiment was conducted to assess if the indicated compounds could disrupt the binding of Oct4 to YAP1. IP-western blots were conducted using the protocols described in Bora-Singhal et al, 2015. Essentially, cells were treated with 5 μM of the indicated compounds for 72 hours. Lysates were prepared from the cells, and immunoprecipitated with an antibody to OCt4, or a control IgG. Lysates as well as the immunoprecipitates were resoled by a polyacrylamide gel and a western blot was conducted using an antibody to YAP1.

Sequence of YAP1:OCT4 (P46937 whole entry): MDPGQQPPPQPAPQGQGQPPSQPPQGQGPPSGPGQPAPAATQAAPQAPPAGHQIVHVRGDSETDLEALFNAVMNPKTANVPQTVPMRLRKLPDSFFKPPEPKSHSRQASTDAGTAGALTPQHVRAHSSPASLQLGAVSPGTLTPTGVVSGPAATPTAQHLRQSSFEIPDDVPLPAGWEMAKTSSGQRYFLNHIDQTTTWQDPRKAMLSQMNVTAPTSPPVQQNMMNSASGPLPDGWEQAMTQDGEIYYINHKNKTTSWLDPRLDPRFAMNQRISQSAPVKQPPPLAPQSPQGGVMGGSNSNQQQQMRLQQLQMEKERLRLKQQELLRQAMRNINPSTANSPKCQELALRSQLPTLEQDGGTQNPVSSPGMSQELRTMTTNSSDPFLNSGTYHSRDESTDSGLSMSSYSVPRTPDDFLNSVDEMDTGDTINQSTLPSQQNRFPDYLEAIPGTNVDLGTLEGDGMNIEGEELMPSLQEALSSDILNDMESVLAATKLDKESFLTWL
T1 sequence (P46937 whole entry): as above

| SMILES | IC50 (YAP1:OCT4) [µM] | YAP1-Oct4 interaction detected by IP-WB (binding of Oct4 to YAP1; A549 cells) | YAP1-Oct4 interaction detected by IP-WB (binding of Oct4 to YAP1; H1650 cells) |
| --- | --- | --- | --- |
| COC(=O)[C@H](Cc1ccc(OCc2ccccc2)cc1)NC(=O)CC1CCN(C(=O)OC(C)(C)C)CC1 [SR1-083, tert-Butyl (S)-4-(2-((3-(4-(benzyloxy)phenyl)-1-methoxy-1-oxopropan-2-yl)amino)-2-oxoethyl)piperidine-1-carboxylate] | 1 to 10 | – | – |
| COC(=O)[C@H](Cc1ccc(OCc2ccccc2)cc1)NC(=O)CN1CCN(C(=O)OC(C)(C)C)CC1 [SR1-090, tert-Butyl (S)-4-(2-((3-(4-(benzyloxy)phenyl)-1-methoxy-1-oxopropan-2-yl)amino)-2-oxoethyl)piperazine-1-carboxylate] | > 10 | – | – |
| COC(=O)[C@H](Cc1ccc(OCc2ccccc2)cc1)NC(=O)CN1CCN(C(=O)[C@@H]2CCCN2C(=O)OCC2c3ccccc3-c3ccccc32)CC1 [SR1-094, Fmoc-Pro-piperazineacetic acid Tyr(bzl)-OMe] | > 10 | – | – |
| COC(=O)[C@H](Cc1ccc(OCc2ccccc2)cc1)NC(=O)CC1CCN(Cc2ccccc2)CC1 [SR1-117, Methyl (S)-3-(4-(benzyloxy)phenyl)-2-(2-(1-benzylpiperidin-4-yl)acetamido)propanoate] | > 10 | – | – |
| COC(=O)[C@H](Cc1ccc(OCc2ccccc2)cc1)NC(=O)CC1CCN(C(=O)c2ccccc2)CC1 [SR1-118, Methyl (S)-2-(2-(1-benzoylpiperidin-4-yl)acetamido)-3-(4-(benzyloxy)phenyl)propanoate] | 1 to 10 | – | – |
| COC(=O)[C@H](Cc1ccc(OCc2ccccc2)cc1)NC(=O)CC1CCN(C(=O)Cc2ccccc2)CC1 [SR1-122, Methyl (S)-3-(4-(benzyloxy)phenyl)-2-(2-(1-(2-phenylacetyl)piperidin-4-yl)acetamido)-propanoate] | 1 to 10 | – | – |
| CC(C)(C)OC(=O)N1CCC(CC(=O)N[C@@H](Cc2ccc(OCc3ccccc3)cc2)C(=O)O)CC1 [SR1-152, (S)-3-(4-(benzyloxy)phenyl)-2-(2-(1-(tert-butoxycarbonyl)piperidin-4-yl)acetamido)-propanoic acid] | 1 to 10 | – | – |
| CC(C)NC(=O)[C@H](Cc1ccc(OCc2ccccc2)cc1)NC(=O)CC1CCN(C(=O)OC(C)(C)C)CC1 [SR1-167, tert-butyl (S)-4-(2-((3-(4-(benzyloxy)phenyl)-1-(isopropylamino)-1-oxopropan-2-yl)amino)-2-oxoethyl)piperidine-1-carboxylate] | 1 to 10 | – | – |
| COC(=O)[C@H](Cc1ccc(OCc2ccccc2)cc1)NC(=O)CC1CCN(C(=O)CCc2ccccc2OC)CC1 [SR2-006, Methyl (S)-3-(4-(benzyloxy)phenyl)-2-(2-(1-(3-(2-methoxyphenyl)propanoyl)piperidin-4-yl)acetamido)propanoate] | 1 to 10 | – | – |
| O=C(CC1CCN(C(=O)CCc2ccccc2)CC1)N[C@@H](Cc1ccc(OCc2ccccc2)cc1)C(=O)NC1CC1 [SR2-015, (S)-3-(4-(Benzyloxy)phenyl)-N-cyclopropyl-2-(2-(1-(3-phenylpropanoyl)piperidin-4-yl)acetamido)propanamide] | 1 to 10 | – | – |
| O=C(CC1CCN(C(=O)CCc2ccccc2)CC1)N[C@@H](Cc1ccc(OCc2ccccc2)cc1)C(=O)NC1CCC1 [SR2-016, (S)-3-(4-(Benzyloxy)phenyl)-N-cyclobutyl-2-(2-(1-(3-phenylpropanoyl)piperidin-4-yl)acetamido)propanamide] | 1 to 10 | – | – |
| O=C(CC1CCN(C(=O)CCc2ccccc2)CC1)N[C@@H](Cc1ccc(OCc2ccccc2)cc1)C(=O)NCC1CC1 [SR2-019, (S)-3-(4-(benzyloxy)phenyl)-N-(cyclopropylmethyl)-2-(2-(1-(3-phenylpropanoyl)piperidin-4-yl)acetamido)propanamide] | 1 to 10 | – | – |
| COC(=O)[C@H](Cc1ccc(OCc2ccccc2)cc1)NC(=O)CC1CCN(C(=O)CC(c2ccccc2)c2ccccc2)CC1 [SR2-029, Methyl (S)-3-(4-(benzyloxy)phenyl)-2-(2-(1-(3,3-diphenylpropanoyl)piperidin-4-yl)acetamido)propanoate] | < 10 | – | – |
| COC(=O)[C@H](Cc1ccc(OCc2ccccc2)cc1)NC(=O)CC1CCN(C(=O)CCc2ccc(Cl)c(Cl)c2)CC1 [SR2-030, Methyl (S)-3-(4-(benzyloxy)phenyl)-2-(2-(1-(3-(3,4-dichlorophenyl)propanoyl)piperidin-4-yl)acetamido)propanoate] | < 10 | completely abolished | significantly reduced |
| COC(=O)[C@H](Cc1ccc(OCc2ccccc2)cc1)NC(=O)CC1CCN(C(=O)CCc2cc(Cl)cc(Cl)c2)CC1 [SR2-106, Methyl (S)-3-(4-(benzyloxy)phenyl)-2-(2-(1-(3-(3,5-dichlorophenyl)propanoyl)piperidin-4-yl)acetamido)propanoate] | < 10 | – | – |

The remaining lines, values ahead:

| IC50 (YAP1:OCT4) [µM] | YAP1-Oct4 interaction detected by IP-WB (binding of Oct4 to YAP1; A549 cells) | YAP1-Oct4 interaction detected by IP-WB (binding of Oct4 to YAP1; H1650 cells) | SMILES |
| --- | --- | --- | --- |
| 1 to 10 | – | – | COC(=O)[C@H](Cc1ccc(OCc2ccccc2)cc1)NC(=O)CC1CCN(C(=O)CCc2ccccc2)CC1 [SR1-119, Methyl (S)-3-(4-(benzyloxy)phenyl)-2-(2-(1-(3-phenylpropanoyl)piperidin-4-yl)acetamido)propanoate] |
| < 10 | – | – | COC(=O)[C@H](Cc1ccc(OCc2ccccc2)cc1)NC(=O)CC1CCN(C(=O)CCc2ccc(Cl)cc2)CC1 [SR2-004, Methyl (S)-3-(4-(benzyloxy)phenyl)-2-(2-(1-(3-(4-chlorophenyl)propanoyl)piperidin-4-yl)acetamido)propanoate] |
| 1 to 10 | – | – | CCOc1ccc(CCC(=O)N2CCC(CC(=O)N[C@@H](Cc3ccc(OCc4ccccc4)cc3)C(=O)OC)CC2)cc1 [SR2-007, Methyl (S)-3-(4-(benzyloxy)phenyl)-2-(2-(1-(3-(4-ethoxyphenyl)propanoyl)piperidin-4-yl)acetamido)propanoate] |
| 1 to 10 | – | – | COC(=O)[C@H](Cc1ccc(OCc2ccccc2)cc1)NC(=O)CC1CCN(C(=O)CCc2ccc(F)cc2)CC1 [SR2-008, Methyl (S)-3-(4-(benzyloxy)phenyl)-2-(2-(1-(3-(4-fluorophenyl)propanoyl)piperidin-4-yl)acetamido)propanoate] |
| 1 to 10 | – | – | COC(=O)[C@H](Cc1ccc(OCc2ccccc2)cc1)NC(=O)CC1CCN(C(=O)CCc2ccc(C(F)(F)F)cc2)CC1 [SR2-009, Methyl (S)-3-(4-(benzyloxy)phenyl)-2-(2-(1-(3-(4-(trifluoromethyl)phenyl)propanoyl)-piperidin-4-yl)acetamido)propanoate] |
| < 10 | – | – | COC(=O)[C@H](Cc1ccc(OCc2ccccc2)cc1)NC(=O)CC1CCN(C(=O)CCc2cccc(F)c2)CC1 [SR2-010, Methyl (S)-3-(4-(benzyloxy)phenyl)-2-(2-(1-(3-(3-fluorophenyl)propanoyl)piperidin-4-yl)acetamido)propanoate] |
| < 10 | completely abolished | significantly reduced | O=C(CC1CCN(C(=O)CCc2ccccc2)CC1)N[C@@H](Cc1ccc(OCc2ccccc2)cc1)C(=O)O [SR2-022, (S)-3-(4-(Benzyloxy)phenyl)-2-(2-(1-(3-phenylpropanoyl)piperidin-4-yl)acetamido)propan-oic acid] |
| < 10 | – | – | COC(=O)[C@H](Cc1ccc(OCc2ccccc2)cc1)NC(=O)CC1CCN(C(=O)CCc2cccc(Cl)c2)CC1 [SR2-032, Methyl (S)-3-(4-(benzyloxy)phenyl)-2-(2-(1-(3-(3-chlorophenyl)propanoyl)piperidin-4-yl)acetamido)propanoate] |
| 1 to 10 | – | – | COC(=O)[C@H](Cc1ccc(OCc2ccccc2)cc1)NC(=O)CC1CCN(C(=O)CCc2cccc(C)c2)CC1 [SR2-036, Methyl (S)-3-(4-(benzyloxy)phenyl)-2-(2-(1-(3-(m-tolyl)propanoyl)piperidin-4-yl)acetamido)propanoate] |
| < 10 | – | – | COC(=O)[C@H](Cc1ccc(OCc2ccccc2)cc1)NC(=O)CC1CCN(C(=O)CCc2cccc(Br)c2)CC1 [SR2-107, Methyl (S)-3-(4-(benzyloxy)phenyl)-2-(2-(1-(3-(3-bromophenyl)propanoyl)piperidin-4-yl)acetamido)propanoate] |
| < 10 | – | – | O=C(CC1CCN(C(=O)CCc2ccc(Cl)c(Cl)c2)CC1)N[C@@H](Cc1ccc(OCc2ccccc2)cc1)C(=O)O [SR2-113, (S)-3-(4-(Benzyloxy)phenyl)-2-(2-(1-(3-(3,4-dichlorophenyl)propanoyl)piperidin-4-yl)acetamido)propanoic acid] |
| < 10 | – | – | N#Cc1ccc(CCC(=O)N2CCC(CC(=O)N[C@@H](Cc3ccc(OCc4ccccc4)cc3)C(=O)O)CC2)cc1 [SR2-114, (S)-3-(4-(Benzyloxy)phenyl)-2-(2-(1-(3-(4-cyanophenyl)propanoyl)piperidin-4-yl)acetamido)propanoic acid] |
| < 10 | – | – | O=C(CC1CCN(C(=O)CCc2cccc(F)c2)CC1)N[C@@H](Cc1ccc(OCc2ccccc2)cc1)C(=O)O [SR2-117, (S)-3-(4-(Benzyloxy)phenyl)-2-(2-(1-(3-(3-fluorophenyl)propanoyl)piperidin-4-yl)acetamido)propanoic acid] |
| < 10 | – | – | O=C(CC1CCN(C(=O)CCc2ccc(F)cc2)CC1)N[C@@H](Cc1ccc(OCc2ccccc2)cc1)C(=O)O [SR2-120, (S)-3-(4-(Benzyloxy)phenyl)-2-(2-(1-(3-(4-fluorophenyl)propanoyl)piperidin-4-yl)acetamido)propanoic acid] |
| < 10 | – | – | CCOc1ccc(CCC(=O)N2CCC(CC(=O)N[C@@H](Cc3ccc(OCc4ccccc4)cc3)C(=O)O)CC2)cc1 [SR2-122, (S)-3-(4-(Benzyloxy)phenyl)-2-(2-(1-(3-(4-ethoxyphenyl)propanoyl)piperidin-4-yl)acetamido)propanoic acid] |
